According to PMC12654597, “Dawson- and Lindqvist-Type Hybrid Polyoxometalates: Synthesis, Characterization and Ca^2+-ATPase Inhibition Potential” (Molecules, 2025):
Where two headings read alike, the source gives them in different places. One block for each compound: values may come before it.

What was measured:
Ca^2+-ATPase = conditions: literature values for known P-type ATPase inhibitors; cited from earlier work
[1] = target: T1, sarcoplasmic reticulum (SR) Ca^2+-ATPase (Oryctolagus cuniculus, UniProt P04191); conditions: cited from earlier work; for IC50: same experimental model, method and conditions
T1 construct: The experiments were performed with isolated sarcoplasmic reticulum vesicles (SRVs); from tissue; host or cells: rabbit skeletal muscle sarcoplasmic reticulum vesicles
T1 sequence (P04191 1-994 isoform P04191-2): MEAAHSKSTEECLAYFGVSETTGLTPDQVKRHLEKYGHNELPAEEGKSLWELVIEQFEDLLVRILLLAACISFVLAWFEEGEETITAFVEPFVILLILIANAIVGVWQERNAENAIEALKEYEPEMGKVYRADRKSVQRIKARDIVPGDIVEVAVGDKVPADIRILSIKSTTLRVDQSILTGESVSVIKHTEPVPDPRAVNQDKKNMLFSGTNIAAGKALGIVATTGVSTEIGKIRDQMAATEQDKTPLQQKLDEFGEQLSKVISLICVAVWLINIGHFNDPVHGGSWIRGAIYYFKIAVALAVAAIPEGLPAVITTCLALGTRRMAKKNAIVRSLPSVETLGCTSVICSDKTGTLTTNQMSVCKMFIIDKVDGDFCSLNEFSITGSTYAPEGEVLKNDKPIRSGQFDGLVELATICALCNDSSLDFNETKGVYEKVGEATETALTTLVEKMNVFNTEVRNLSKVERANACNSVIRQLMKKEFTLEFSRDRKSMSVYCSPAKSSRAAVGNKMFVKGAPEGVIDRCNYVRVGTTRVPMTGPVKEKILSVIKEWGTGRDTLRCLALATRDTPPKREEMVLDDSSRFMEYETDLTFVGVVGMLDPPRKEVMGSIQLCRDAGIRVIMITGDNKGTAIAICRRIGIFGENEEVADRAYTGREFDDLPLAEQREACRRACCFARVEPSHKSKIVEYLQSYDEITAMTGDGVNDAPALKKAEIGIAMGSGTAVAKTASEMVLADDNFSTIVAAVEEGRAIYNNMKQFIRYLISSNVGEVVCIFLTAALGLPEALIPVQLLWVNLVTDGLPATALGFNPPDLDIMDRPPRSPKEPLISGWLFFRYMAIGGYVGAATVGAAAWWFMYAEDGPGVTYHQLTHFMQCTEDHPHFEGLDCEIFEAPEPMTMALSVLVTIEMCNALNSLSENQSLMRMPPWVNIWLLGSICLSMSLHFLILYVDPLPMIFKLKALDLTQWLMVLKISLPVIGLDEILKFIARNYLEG

[2] = target: T1, sarcoplasmic reticulum (SR) Ca^2+-ATPase; test: Sarcoplasmic reticulum Ca2+-ATPase activity, coupled enzyme pyruvate kinase/lactate dehydrogenase assay; type: biochemical, rabbit; conditions: for IC50: SR vesicles from rabbit skeletal muscle, pH 7.0, 25 °C, uncoupled activity (A23187), triplicate
Excerpt: In order to evaluate the inhibition potential for each of the POMs compounds regarding the Ca^2+-ATPase activity, increasing concentrations of each POM and a control without the presence of the inhibitor were used in order to determine the IC50 values. For each of these assays, an absorbance versus time kinetic is obtained. In the absence of the POM, the control assay was obtained—that is, a kinetic with a higher slope, while by increasing the concentrations of the POMs, lower enzymatic kinetic slopes were found due to the inhibition of the ATPase activity (Figure S1).
Using this method, the effects of the inhibitors can be observed in real time and recorded within 2 to 5 min upon addition of the inhibitor, as described previously. […] For each compound, the equation governing the trendline of this can be solved for 50% in order to determine the IC50 value.
The sarcoplasmic reticulum vesicles (SRV) that contain the Ca^2+-ATPase was previously prepared from rabbit skeletal muscles as described elsewhere. The vesicles were suspended in 0.1 M KCl, 10 mM HEPES (pH 7.0), diluted 1:1 with 2.0 M sucrose, and frozen in liquid nitrogen for storage at −80 °C. […] Stock solutions of the POMs compounds (1 mM) were freshly prepared by dissolving the solid compound in miliQ water and keeping the solution at room temperature before use.
For carrying out the determination of Ca^2+-ATPase activity assays, the following medium was prepared: 25 mM HEPES (pH 7.0), 100 mM KCl, 5 mM MgCl2 and 50 µM CaCl2.
The experiments were performed with isolated sarcoplasmic reticulum vesicles (SRVs) previously diluted to 1 mg/mL with a sucrose concentration of 0.25 M (Figure 11). 0.8 mL of medium described above was added into a quartz cuvette. 0.42 mM phosphoenolpyruvate (PEP), 18 IU lactate dehydrogenase, 7.5 IU 155 pyruvate kinase, and 2.5 mM ATP without (control) or with increasing concentrations of POMs were added to this medium. […] The absorbance of the solution was measured spectrophotometrically at 340 nm, 25 °C, and an auto zero was performed. Subsequently, 0.25 mM NADH was added, allowing the absorbance value to stabilize to about 1.3 O.D. The assay begins after the addition of 10 μg/mL of Ca^2+-ATPase (basal activity) and one minute after ionophore A23187 (calcimycin) 4% (w/w) was added (uncoupled activity), and the kinetics followed for about 2 min in the absence or in the presence of increasing concentrations of POMs, from 0 to 15 μM for compound 1 and from 0 to 80 μM for compound 2. […]
For each experimental condition, the experiments were always performed in triplicate. Therefore, the determination of Ca^2+-ATPase activity without and with the inhibitor was made using a continuous enzymatic method using the measurement of absorbance versus time (Figure S1), as described elsewhere.

Compound: Cc1ccc(-c2cc(C(F)(F)F)nn2-c2ccc(S(N)(=O)=O)cc2)cc1 [celecoxib]
IC50 (Ca^2+-ATPase): 35 µM

Compound: [O]=[V]([OH])([OH])[O][V]1(=[O])[O][V]2(=[O])[O][V](=[O])([O][V](=[O])([OH])[OH])[O][V](=[O])([O]2)[O][V]2(=[O])[O][V](=[O])([O][V](=[O])([OH])[OH])[O][V](=[O])([O]1)[O]2 (stereo not shown) [V10, decavanadate]
IC50 [1]: 15 µM

Compound: CC(=O)C1=C(O)[C@@H]2[C@H]3c4c[nH]c5cccc(c45)C[C@H]3C(C)(C)N2C1=O [CPA, cyclopiazonic acid]
IC50 (Ca^2+-ATPase): 0.1 to 0.2 µM

Compound: metformin-decavanadate [Metf-V10]
IC50 ATPase inhibition value relative to V10 alone ([1]; metformin-decavanadate vs V10): six times higher | IC50 [1]: 87.4 µM

IC50 [2]: 3.4 µM | fold inhibition potential regarding ATPase activity relative to compound 2 ([2]; ratio of IC50 values, compound 1 vs compound 2): about 13 fold
Compound: (C2H8N1)6[V2Mo18O62].3H2O [compound 1]

IC50 [2]: 45.1 µM | Ca^2+-ATPase inhibition potency relative to Anderson type TeW6 ([2]; comparison of IC50 values, compound 2 vs TeW6): four times more potent
Compound: (C4H16N3)4[V2W4O19]3.12H2O [compound 2]

Compound: C/C=C(/C)C(=O)O[C@H]1C(C)=C2[C@H]([C@@H]1OC(=O)CCCCCCC)[C@@](C)(OC(C)=O)C[C@H](OC(=O)CCC)[C@@]1(O)[C@H]2OC(=O)[C@@]1(C)O [TG, thapsigargin]
IC50 (Ca^2+-ATPase): 0.001 to 0.029 µM
